Results from US20090018019A1, “INCREASING PATHOGEN DEFENCE IN PLANTS” (priority 2005, published 2009).

Key:
Assay in all cases: DNA chip expression analysis of barley leaves after soil treatment
Format in all cases: in vivo
Settings in all cases: 10 mg per plant to soil
[1] = system: Contig11773_at REGULATOR OF PAT[…]
Method: (§1) Barley seeds (of the Baroness variety) were sown in pots containing soil about 2 cm deep (1250 g of sandy loam/per pot; the soil moisture content was adjusted to 70% of the maximum water-holding capacity) and cultivated in a climatized chamber under specified light, moisture and temperature conditions (15 h white light, 70% atmospheric humidity, 23-19° C. day/night).
(§2) 14 days after the emergence of the barley plants 10 mg of imidacloprid per plant, dissolved in 100 ml water, were applied by means of a pipette to the soil around the base of the shoot. The same volume of water without any active compound was applied to the control pots. After the soil treatment the plants were no longer watered. At various times after application (0.25; 1; 6; 8; 11; 13; 15; 16 and 17 days) the leaves were harvested, quick-frozen in liquid nitrogen and stored at −80° C. until further treatment.
(§3) The labelled RNA probes for the DNA chip hybridization were produced according to the protocols (Expression Analysis, Technical Manual) of the Affymetrix company (Affymetrix Inc., 3380 Central Expressway, Santa Clara, Calif., USA). Whole RNA was first of all isolated from in each case 500 mg of the harvested leaves. 10 μg portions of whole RNA were used for the first and second strand cDNA synthesis. The cDNA was amplified with T7 polymerase and simultaneously labelled with biotin-UTP. 20 μg portions of this biotinylated cDNA were used for the hybridization of the barley genome array (Barleyl Gene Chip, Item no: 511012) from Affymetrix. This DNA microarray contains DNA sequences of 22840 genes composed of a total of 400000 EST (Expressed Sequence Tag) sequences. Then the DNA microarrays were washed in the Affymetrix Fluidics Station, stained with streptavidin/phycoerythrin (Molecular Probes, P/N S-866) and scanned with the Affymetrix Gene Chip Scanner 3000. The fluorescence data obtained were analyzed with the Microarray Suite 5 software from Affymetrix and the Expressionist Pro software from the GeneData company. After a quality check, all of the DNA chip analyses were stored in a database. Since the Affymetrix Gene Chip System is based on measuring the absolute expression values of the genes contained in the chip, the expression values of the biological replicates of treated and non-treated plants were averaged after normalization (median calculation). With the aid of the statistical ANOVA method, those genes were identified whose expression was increased in the plants treated with imidacloprid but remained relatively constant in the untreated controls. The assembly of gene groups from specific metabolic pathways, signal transduction chains or functions was carried out by a keyword search through the gene annotations supplied by Affymetrix and by linking the genes to their corresponding Gene Ontology Annotations (Gene Ontology Consortium).

[2] = system: Contig12046_at PATHOGENESIS RELATED PROTEIN-1
Method: as §1, §2, §3

[3] = system: Contig2212_s_at PATHOGENESIS-RELATED PROTEIN PRB1-3
Method: as §1, §2, §3

[4] = system: Contig639_at PATHOGENESIS-RELATED PROTEIN PRECURSOR
Method: as §1, §2, §3

[5] = system: HV_CEb0020C01r2_at INTEGUMENTARY MUCIN B.1
Method: as §1, §2, §3

SMILES: O=[N+]([O-])/N=C1\NCCN1Cc1ccc(Cl)nc1 [imidacloprid]
- Induction factor = Expression (treated)/Expression (untreated) ([1]; 0.25 d): 0.9
- Median of the raw expression data, treated ([1]; 0.25 days): 175.49
- Induction factor = Expression (treated)/Expression (untreated) ([1]; 1 d): 0.4
- Median of the raw expression data, treated ([1]; 1 day): 70.99
- Induction factor = Expression (treated)/Expression (untreated) ([1]; 6 d): 7.8
- Median of the raw expression data, treated ([1]; 6 days): 1513.72
- Induction factor = Expression (treated)/Expression (untreated) ([1]; 8 d): 11.0
- Median of the raw expression data, treated ([1]; 8 days): 2102.86
- Induction factor = Expression (treated)/Expression (untreated) ([1]; 11 d): 7.4
- Median of the raw expression data, treated ([1]; 11 days): 1580.30
- Induction factor = Expression (treated)/Expression (untreated) ([1]; 13 d): 3.5
- Median of the raw expression data, treated ([1]; 13 days): 208.99
- Induction factor = Expression (treated)/Expression (untreated) ([1]; 15 d): 1.9
- Median of the raw expression data, treated ([1]; 15 days): 182.27
- Induction factor = Expression (treated)/Expression (untreated) ([1]; 16 d): 3.8
- Median of the raw expression data, treated ([1]; 16 days): 694.71
- Induction factor = Expression (treated)/Expression (untreated) ([1]; 17 d): 2.3
- Median of the raw expression data, treated ([1]; 17 days): 340.39
- Induction factor = Expression (treated)/Expression (untreated) ([2]; 0.25 d): 0.9
- Median of the raw expression data, treated ([2]; 0.25 days): 76.89
- Induction factor = Expression (treated)/Expression (untreated) ([2]; 1 d): 0.8
- Median of the raw expression data, treated ([2]; 1 day): 46.22
- Induction factor = Expression (treated)/Expression (untreated) ([2]; 6 d): 6.5
- Median of the raw expression data, treated ([2]; 6 days): 786.00
- Induction factor = Expression (treated)/Expression (untreated) ([2]; 8 d): 7.2
- Median of the raw expression data, treated ([2]; 8 days): 1336.13
- Induction factor = Expression (treated)/Expression (untreated) ([2]; 11 d): 7.8
- Median of the raw expression data, treated ([2]; 11 days): 792.96
- Induction factor = Expression (treated)/Expression (untreated) ([2]; 13 d): 2.7
- Median of the raw expression data, treated ([2]; 13 days): 140.26
- Induction factor = Expression (treated)/Expression (untreated) ([2]; 15 d): 2.5
- Median of the raw expression data, treated ([2]; 15 days): 150.31
- Induction factor = Expression (treated)/Expression (untreated) ([2]; 16 d): 2.9
- Median of the raw expression data, treated ([2]; 16 days): 622.77
- Induction factor = Expression (treated)/Expression (untreated) ([2]; 17 d): 0.9
- Median of the raw expression data, treated ([2]; 17 days): 220.80
- Induction factor = Expression (treated)/Expression (untreated) ([3]; 0.25 d): 0.9
- Median of the raw expression data, treated ([3]; 0.25 days): 153.25
- Induction factor = Expression (treated)/Expression (untreated) ([3]; 1 d): 0.9
- Median of the raw expression data, treated ([3]; 1 day): 135.85
- Induction factor = Expression (treated)/Expression (untreated) ([3]; 6 d): 9.6
- Median of the raw expression data, treated ([3]; 6 days): 3508.08
- Induction factor = Expression (treated)/Expression (untreated) ([3]; 8 d): 10.3
- Median of the raw expression data, treated ([3]; 8 days): 3936.08
- Induction factor = Expression (treated)/Expression (untreated) ([3]; 11 d): 9.0
- Median of the raw expression data, treated ([3]; 11 days): 3866.40
- Induction factor = Expression (treated)/Expression (untreated) ([3]; 13 d): 3.7
- Median of the raw expression data, treated ([3]; 13 days): 470.29
- Induction factor = Expression (treated)/Expression (untreated) ([3]; 15 d): 2.3
- Median of the raw expression data, treated ([3]; 15 days): 378.35
- Induction factor = Expression (treated)/Expression (untreated) ([3]; 16 d): 2.4
- Median of the raw expression data, treated ([3]; 16 days): 756.91
- Induction factor = Expression (treated)/Expression (untreated) ([3]; 17 d): 0.7
- Median of the raw expression data, treated ([3]; 17 days): 376.36
- Induction factor = Expression (treated)/Expression (untreated) ([4]; 0.25 d): 0.7
- Median of the raw expression data, treated ([4]; 0.25 days): 157.66
- Induction factor = Expression (treated)/Expression (untreated) ([4]; 1 d): 0.3
- Median of the raw expression data, treated ([4]; 1 day): 38.68
- Induction factor = Expression (treated)/Expression (untreated) ([4]; 6 d): 8.6
- Median of the raw expression data, treated ([4]; 6 days): 2482.57
- Induction factor = Expression (treated)/Expression (untreated) ([4]; 8 d): 14.7
- Median of the raw expression data, treated ([4]; 8 days): 3944.01
- Induction factor = Expression (treated)/Expression (untreated) ([4]; 11 d): 8.9
- Median of the raw expression data, treated ([4]; 11 days): 4273.57
- Induction factor = Expression (treated)/Expression (untreated) ([4]; 13 d): 11.3
- Median of the raw expression data, treated ([4]; 13 days): 1496.21
- Induction factor = Expression (treated)/Expression (untreated) ([4]; 15 d): 2.9
- Median of the raw expression data, treated ([4]; 15 days): 920.86
- Induction factor = Expression (treated)/Expression (untreated) ([4]; 16 d): 4.4
- Median of the raw expression data, treated ([4]; 16 days): 1300.36
- Induction factor = Expression (treated)/Expression (untreated) ([4]; 17 d): 2.9
- Median of the raw expression data, treated ([4]; 17 days): 1196.37
- Induction factor = Expression (treated)/Expression (untreated) ([5]; 0.25 d): 1.4
- Median of the raw expression data, treated ([5]; 0.25 days): 96.81
- Induction factor = Expression (treated)/Expression (untreated) ([5]; 1 d): 0.9
- Median of the raw expression data, treated ([5]; 1 day): 87.44
- Induction factor = Expression (treated)/Expression (untreated) ([5]; 6 d): 4.3
- Median of the raw expression data, treated ([5]; 6 days): 418.12
- Induction factor = Expression (treated)/Expression (untreated) ([5]; 8 d): 2.8
- Median of the raw expression data, treated ([5]; 8 days): 428.35
- Induction factor = Expression (treated)/Expression (untreated) ([5]; 11 d): 2.2
- Median of the raw expression data, treated ([5]; 11 days): 389.74
- Induction factor = Expression (treated)/Expression (untreated) ([5]; 13 d): 1.7
- Median of the raw expression data, treated ([5]; 13 days): 180.00
- Induction factor = Expression (treated)/Expression (untreated) ([5]; 15 d): 1.0
- Median of the raw expression data, treated ([5]; 15 days): 170.35
- Induction factor = Expression (treated)/Expression (untreated) ([5]; 16 d): 1.2
- Median of the raw expression data, treated ([5]; 16 days): 161.77
- Induction factor = Expression (treated)/Expression (untreated) ([5]; 17 d): 0.6
- Median of the raw expression data, treated ([5]; 17 days): 106.72
